Source: article PMC9103414 (Journal of pharmacological and toxicological methods, 2022)
Counter-ions that a name gives are not always drawn. Like-named read-outs stand apart in the source and are kept apart here. Marks after values point to notes of the source that are not given here.

What was measured:
[1] = cited from earlier work; for Plasma concentrations reach steady state by day: daily dosage, ref Min, et al.; for Cmax: read-out: Plasma Cmax, ref Food and Drug Administration New Drug Applications for each antiretroviral
[2] = test system: hiPSC-neurons; test: HCA of synapses; type: cell-based, human
[3] = test system: hiPSC-neurons; test: Calcium KIC assay; type: cell-based, human; conditions: each ARV at 10 μM, 7 days; for Calcium transient activity compared to DMSO (traces): Fig. 5, Fig. S1; for Percent active hiPSC-neurons, reduction vs DMSO: Fig. 6D; for Number of active neurons with detectable increases in calcium fluorescence: six wells per condition, Fig. 5 (DMSO: 1034 cells)
[4] = test system: hiPSC-neurons; conditions: for Neuronal Viability (percentage of live neuronal nuclei), reduction vs DMSO / Neuronal Viability, change vs DMSO: Fig. 1B; for Total Neurite Length (per cm^2 image area), reduction vs DMSO: Fig. 1C; for Neuronal Viability, reduction vs DMSO: Fig. 2D
[5] = test system: primary embryonic rat neurons; conditions: ref Stern, et al., 2018, cited from earlier work; for Number of MAP2+ neurons: 10 μM
[6] = test system: hNPCs; test: Microscopic Imaging of Epigenetic Landscapes; type: cell-based, human; conditions: for Samples classified correctly by discriminant analysis: H3K27me3/H3K27ac and H3K9me3/H3K4me1 confusion matrices, Fig. 7D, E
[7] = test system: hNPCs; test: hNPC viability; type: cell-based, human; conditions: Fig. 7A
[8] = test system: murine NPCs; conditions: ref Demir & Laywell, 2015; P. Xu, et al., 2017; cited from earlier work
[9] = test system: hiPSC-microglia; conditions: cited from earlier work
[10] = lower concentrations (0.1, 1 μM), 7 days
[11] = 25 μM (inhibiting myosin activity)

Row | Compound | Cmax [1] [µM] | Synapses/Neurite Length, reduction vs DMSO ([2]; 0.1 μM, 7 days, Fig. 3C) [%] | Synapse Density, reduction vs DMSO ([2]; 1 μM, 7 days, Fig. 3B) [%] | Synapses/Neurite Length, reduction vs DMSO ([2]; 1 μM, 7 days, Fig. 3C) | Synapses/Neurite Length, reduction vs DMSO ([2]; 10 μM, 7 days, Fig. 3C) | Synapse Density, percent difference between ARV treatment and DMSO control ([2]; each ARV at 10 μM, 7 days) | Mean Peak Amplitude, percent difference between ARV treatment and DMSO control [3] | Percent Active, percent difference between ARV treatment and DMSO control [3] | Number of active neurons with detectable increases in calcium fluorescence [3] [cells] | Neuronal Viability (percentage of live neuronal nuclei), reduction vs DMSO ([4]; 10 μM, 7 days) [%] | Total Neurite Length (per cm^2 image area), reduction vs DMSO ([4]; 10 μM, 7 days) [%] | Total Neurite Length, percent difference between ARV treatment and DMSO control ([4]; each ARV at 10 μM, 7 days) | Neuronal Viability, reduction vs DMSO ([4]; each ARV at 10 μM, 7 days) [%] | Synapse Density, reduction vs DMSO ([2]; 10 μM, 7 days, Fig. 3B) [%] | other results
1 | C[C@@H]1CCO[C@H]2Cn3cc(C(=O)NCc4ccc(F)cc4F)c(=O)c(O)c3C(=O)N12 [DTG, dolutegravir] | 8 | 20 | 30 | 30% | no effect | −10(NS) percent | −35(NS) percent | −30 ^* percent | 716 | 30 | 20 | −14(NS) percent | 20 |  | Plasma concentrations reach steady state by day ([1]; healthy volunteers, 2010): ≤ 5 days; Plasma concentrations reach steady state by day ([1]; people with HIV, 2011): ≤ 7 days; Event Frequency, percent difference between ARV treatment and DMSO control [3]: −10(NS) percent; Calcium transient activity compared to DMSO (traces) [3]: less calcium transient activity compared to DMSO; Percent active hiPSC-neurons, reduction vs DMSO [3]: 30%; Neurite Length per Neuron, increase vs DMSO ([4]; 10 μM, 7 days, Fig. 1D): 20%
2 | COc1cc2c(cc1Cc1cccc(Cl)c1F)c(=O)c(C(=O)O)cn2[C@H](CO)C(C)C [EVG, elvitegravir] |  | 25 |  | no effect |  | −90 ^*** percent | −55 ^** percent | −90 ^*** percent | 31 | 65 | 80 | −85 ^*** percent | 80 | 75 | Synapse Density (synapses per cm^2 imaging area), reduction vs DMSO ([2]; 0.1 μM, 7 days, Fig. 3B): 20%; Synapses/Neurite Length, increase vs DMSO ([2]; 10 μM, 7 days, Fig. 3C): 20%; Synapse Density, reduction vs DMSO ([2]; each ARV at 10 μM, 7 days, Fig. 4C): 90%; Number of MAP2+ neurons ([5]; four days): significantly reduced the number of MAP2+ neurons; Number of MAP2+ neurons ([5]; two days): not two days; Neurotoxicity ([5]; 0.1 and 1 μM): not neurotoxic; Event Frequency, percent difference between ARV treatment and DMSO control [3]: −40 ^** percent; Calcium transient activity compared to DMSO (traces) [3]: virtually inactive; Percent active hiPSC-neurons, reduction vs DMSO [3]: 90%; Calcium transient event frequency, reduction vs DMSO ([3]; Fig. 6E): 40%; Calcium transient mean peak amplitude, reduction vs DMSO ([3]; Fig. 6F): 55%; Neurite Length per Neuron, lower than DMSO ([4]; 10 μM, 7 days, Fig. 1D): 50%; Total Neurite Length, reduction vs DMSO ([4]; each ARV at 10 μM, 7 days, Fig. 2E): 85%; Neuronal Viability, change vs DMSO [4, 10]: did not observe changes
3 | Nc1nc(=O)n([C@@H]2CS[C@H](CO)O2)cc1F [FTC, emtricitabine] | 7 | 20 | 20 | 20% | 30% | −10(NS) percent | −10(NS) percent |  | 1003 |  |  | −6(NS) percent |  | 30 | Neuronal Viability, change vs DMSO ([4]; any tested concentration (0.1, 1, 10 μM), 7 days): did not observe changes
4 | CCCc1cc(C)[nH]c(=O)c1CNC(=O)c1cc(-c2ccnc(N3CCN(C)CC3)c2)cc2c1cnn2C(C)C [GSK343] |  |  |  |  |  |  |  |  |  |  |  |  |  |  | Samples classified correctly by discriminant analysis ([6]; 10 μM): 100%; hNPC viability, reduction vs DMSO ([7]; 10 μM, three days): 50%
5 | O=C(CCCCCCC(=O)Nc1ccccc1)NO [SAHA] |  |  |  |  |  |  |  |  |  |  |  |  |  |  | Samples classified correctly by discriminant analysis ([6]; 3 μM): 100%; hNPC viability, reduction vs DMSO ([7]; 3 μM): 45%
6 | CC(C)OC(=O)OCOP(=O)(CO[C@H](C)Cn1cnc2c(N)ncnc21)OCOC(=O)OC(C)C [TDF, tenofovir disoproxil fumarate] | 0.6 | 20 | 30 | 25% | 20% |  | +20(NS) percent | −10(NS) percent | 729 | 35 | 20 |  | 30 | 40 | Viability of murine NPCs [8]: reduce the viability; Effect on epigenetic landscape (H3K27me3/H3K27ac and H3K9me3/H3K4me1 MIEL analysis) ([6]; 10 μM, three days, Fig. 7B–E): altered the epigenetic landscape; hNPC viability, reduction vs DMSO ([7]; 10 μM, three days): 30%; Neuronal Viability, change vs DMSO [4, 10]: did not observe changes
7 | O=C1Nc2ccc(Cl)cc2[C@@](C#CC2CC2)(C(F)(F)F)O1 [efavirenz] |  |  |  |  |  |  |  |  |  |  |  |  |  |  | Inflammation in hiPSC-microglia [9]: increased inflammation; Phagocytosis in hiPSC-microglia [9]: reduced phagocytosis
8 | C[C@@H]1CCN(C(=O)CC#N)C[C@@H]1N(C)c1ncnc2[nH]ccc12 [tofacitinib] |  |  |  |  |  |  |  |  |  |  |  |  |  |  | hNPC viability, effect ([7]; 1 μM): not affected
9 | Cc1cn([C@H]2C[C@H](N=[N+]=[N-])[C@@H](CO)O2)c(=O)[nH]c1=O [zidovidine] |  |  |  |  |  |  |  |  |  |  |  |  |  |  | Viability of murine NPCs [8]: reduce the viability
10 | para-nitroblebbistatin |  |  |  |  |  |  |  |  |  |  |  |  |  |  | Synapse Density, reduction vs DMSO ([2]; 25 μM, 7 days, Fig. 3B): 30%; Synapses/Neurite Length, reduction vs DMSO ([2]; 25 μM, 7 days, Fig. 3C): 20%; Synapse Density, increase vs DMSO ([2]; 25 μM, one day, Fig. 4A): 20%; Neurite length, effect [4, 11]: did not affect; Neuron viability, effect [4, 11]: did not affect; Total Neurite Length, increase vs DMSO ([4]; 25 μM, one day, Fig. 2B): 15%
